The source of these data is patent publication US8940900B2, “2,2,2-tri-substituted acetamide derivatives as glucokinase activators, their process and pharmaceutical application” (Advinus Therapeutics Private Limited, priority 2007, dated 2015).

The test system of one series is primary rat hepatocytes. Put plainly: Glycogen synthesis in primary rat hepatocytes. The class given is cell-based. The conditions noted are these: Table 5, 10 mM glucose, 3 hours, over DMSO control. As to the method:
Primary hepatocytes are collected from male Wistar rats, and tested for viability by trypan blue exclusion. […] The medium is then replaced with fresh MEM (serum-free) containing 2 μCi/ml of D-[U^14C]-Glucose along with 10 μM of the compound in a final DMSO concentration of 0.1%. The final glucose concentration is brought to 10 mM by the addition of D-Glucose (MEM already contains 5 mM glucose). The cells are incubated for 3 hours at 37° C. […] After another round of centrifugation, the supernatant is removed, and the pellet containing the precipitated glycogen is dried overnight. De novo synthesized glycogen is estimated in a scintillation counter (MicroBeta Trilux, Perkin Elmer), and expressed as fold increase over DMSO control.
The protocol for isolation of primary rat hepatocytes is based on the method described in “Methods in Enzymology, Vol. III. pp 34-50. Ed. by S. P. Colowick and N. O. Kaplan.
Compounds described in formula (I), in concentration ranges from 1.0 nM to 500 μM, are tested in glycogen synthesis assay described above.

Series [1] has as its target T1, purified human recombinant GK (Homo sapiens, UniProt P35557).
T1 sequence (P35557 1-465): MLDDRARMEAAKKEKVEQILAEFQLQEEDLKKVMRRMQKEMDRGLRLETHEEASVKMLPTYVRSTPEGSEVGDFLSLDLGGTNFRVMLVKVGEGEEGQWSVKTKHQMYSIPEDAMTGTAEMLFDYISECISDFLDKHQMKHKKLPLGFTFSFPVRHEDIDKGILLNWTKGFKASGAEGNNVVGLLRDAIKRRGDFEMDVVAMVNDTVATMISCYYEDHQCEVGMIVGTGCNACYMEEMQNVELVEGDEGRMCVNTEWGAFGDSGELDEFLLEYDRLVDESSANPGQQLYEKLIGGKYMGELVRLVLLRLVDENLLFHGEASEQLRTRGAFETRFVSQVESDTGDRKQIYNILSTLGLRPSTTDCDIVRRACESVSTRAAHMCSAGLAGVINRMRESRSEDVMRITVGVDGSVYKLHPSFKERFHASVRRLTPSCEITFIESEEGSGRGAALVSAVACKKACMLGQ
Put plainly: Characterization of partial glucokinase activators: dose dependent effect on % ΔS0.5 of glucokinase for glucose. The class given is biochemical. Conditions: Table 4; partial glucokinase activators. As to the method: The ΔS0.5 is then normalized to a percent scale, where the S0.5 in the vehicle control is set to 0% and 0 mM glucose is set to 100%. […] The EC50 of % change in S0.5 is obtained from the sigmoidal fit of the data.
The change in the S0.5 of glucokinase (ΔS0.5) for glucose in the presence of Examples A11, O15 and J1 is calculated by subtracting the S0.5 at each concentration of each Example from the S0.5 in the vehicle control. The ΔS0.5 is then normalized to a percent scale, where the S0.5 in the vehicle control is set to 0% and 0 mM glucose is set to 100%. The % ΔS0.5 is then plotted against the log of the concentration of each Example.
FIG. 2B illustrates such a derived plot, taking S0.5 data from FIG. 2A.
Glucokinase (GK) activity, in vitro, has been measured using a coupled enzymatic assay (Ref: Hariharan et al (1997) Diabetes 46: 11-16). GK catalyzes the first step, the conversion of glucose to glucose-6-phosphate (G6P) in the presence of ATP. G6P in turn is converted by glucose-6-phosphate dehydrogenase (G6PD) to 6-phosphogluconate, a process that requires NAD, resulting in NADH formation. Since the GK-catalyzed step is the rate-limiting step of this coupled enzymatic process, the rate of accumulation of 6-phosphogluconate and NADH is directly proportional to the rate of glucose phosphorylation by GK. The rate of the GK-catalyzed reaction can therefore be measured by monitoring the increase in NADH absorbance at 340 nm.
The assay is carried out according to the protocol outlined in Hariharan et al (1997), Diabetes 46: 11-16. Briefly, the test compounds are incubated in a reaction mix containing 25 mM HEPES (pH 7.2), 10 mM MgCl2, 100 mM KCl, 5 mM ATP, 2 mM DTT, 0.5 mM NAD, 1 U/ml Leuconostoc mesenteroides G6PD, 0.3 U/ml of purified human recombinant GK, and different concentrations of glucose. Enzymatic activity is calculated from the initial reaction velocity, measured from the change in NADH absorbance as a function of time.
Compounds of interest are tested in GK assay to monitor dose dependent effect on Glucokinase activation (in kinetic mode), as described above, at various glucose concentration.

The conditions of series [2]: animal efficacy models; PSN-GK1 at higher dose; cited from earlier work.

Usually Emax stands for the size of the effect at its maximum, as opposed to the concentration needed.

On to `CC(C)(Oc1ccc2c(c1)OCO2)C(=O)Nc1nc(CC(=O)Nc2ccc(F)cc2)cs1` [Example J2, 2-(Benzo[1,3]dioxol-5-yloxy)-N-{4-[(4-fluoro-phenylcarbamoyl)-methyl]-thiazol-2-yl}-2-methyl-propionamide], for which the “Fold increase in glycogen synthesis at 10 μM Compound” value with primary rat hepatocytes is reported as 1.8 fold. Also, in series [1], the Emax came out at 40%.
As to `CS(=O)(=O)c1ccc([C@@H](CC2CCCC2)C(=O)Nc2nccs2)cc1` [Ro-28-1675], in series [2], the Hypoglycemia result is given as “cause hypoglycemia in animal efficacy models”.
